Tests used:
[1] = tested on: MDA-MB-468 breast cancer cell line; experiment: Cell growth inhibition assay, MDA-MB-468 (CellTiter-Glo); type: cell-based; conditions: Homo sapiens, MDA-MB-468, 96 hours
Experimental: The inhibitory effects of the compounds of the present invention against the growth of cancer cells were evaluated as shown below. The cancer cell lines including prostate cancer cell lines (LNCaP, DU-145), stomach cancer cell line (NCI-N87), and breast cancer cell lines (MDA-MB-468) were cultured under the protocol provided by each supplier. A medium supplemented with 10 ng/mL of IL-6 was used for LNCaP, a prostate cancer cell line, when treated with a drug. Each type of cells to be used in experiments was sub-cultured in a 96-well plate by counting the exact number of cells using Tali™ Image-based Cytometer (Life Technologies). In a 96-well plate, DU-145 was employed with 3,000 cells/well; NCI-N87 was employed with 5,000 cells/well; and LNCaP and MDA-MB-468 were employed with 10,000 cells/well. The cells were treated with the compounds listed in Examples which were diluted in various concentrations. Upon completion of the compounds treatment, LNCaP, DU-145, NCI-N87 cells were cultured at 37° C. under 5% CO2 for 96 hours, and MDA-MB-468 cells were cultured at 37° C. in air for 96 hours. Subsequently, the cells were observed under microscope and drug precipitation and particular findings were investigated and recorded. And then, the 96-well plate was placed at room temperature for 30 minutes, added with 20 pt/well of CellTiter-Glo solution (Cat No. G7573, Promega) and shaken for 10 minutes, followed by being subjected to the measurement using PHERAstar™ microplate reader (BMG LABTECH) according to the supplier's general luminometer protocol. Wells where only culture liquid added without cell plating were used as a negative control, whereas wells where culture liquid containing 0.1% DMSO instead of the compounds listed in Examples were used as a positive control.

STAT1 = STAT1 reporter gene assay (luciferase), U2OS stable cell line pGL4-STAT1-TA-luc, IFN-γ stimulation; type: cell-based, human; conditions: Homo sapiens, IFN-γ 50 ng/mL, 8 hours, read-out: IC50 (μM) pSTAT1
Method in brief: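 U2OS cells stably carrying a STAT1-driven luciferase reporter were treated with serially diluted compounds plus IFN-γ (50 ng/mL final) for 8 h at 37 °C in 10% FBS medium. Luciferase read after lysis; parallel plate assessed for cytotoxicity by CellTiter-Glo.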

[2] = tested on: NCI-N87 stomach cancer cell line; experiment: Cell growth inhibition assay, NCI-N87 (CellTiter-Glo); type: cell-based; conditions: Homo sapiens; NCI-N87, 5,000 cells/well, 96 hours
Method in brief: (§1)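 Cells seeded at 3,000 (DU-145), 5,000 (NCI-N87) or 10,000 (LNCaP, MDA-MB-468) per well, LNCaP in medium with 10 ng/mL IL-6. Serially diluted compound for 96 h at 37 °C (MDA-MB-468 in air, others 5% CO2); viability by CellTiter-Glo luminescence versus 0.1% DMSO wells.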

STAT3 = STAT3 reporter gene assay (luciferase), LNCaP stable cell line pSTAT3-TA-luc, IL-6 stimulation; type: cell-based, human; conditions: Homo sapiens
Method in brief: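 LNCaP cells stably carrying pSTAT3-TA-luc were plated 24 h in 3% DCC-FBS medium, then given compound followed by IL-6 (10 ng/mL final) for 24 h at 37 °C. Luciferase was read from lysates, with CellTiter-Glo viability on a duplicate plate. Stimulated 0.1% DMSO wells served as uninhibited control.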

[3] = tested on: DU-145 prostate cancer cell line; experiment: Cell growth inhibition assay, DU-145 (CellTiter-Glo); type: cell-based; conditions: Homo sapiens; DU-145, 3,000 cells/well, 96 hours
Method in brief: as §1

[4] = tested on: LNCaP prostate cancer cell line; experiment: Cell growth inhibition assay, LNCaP (CellTiter-Glo); type: cell-based; conditions: Homo sapiens; LNCaP, 10,000 cells/well, medium with 10 ng/mL IL-6, 96 hours
Method in brief: as §1

IC50 [1]	IC50 (STAT1)	IC50 [2]	IC50 (STAT3)	IC50 [3]	IC50 [4]	Compound
0.0041 µM	> 50 µM	0.035 µM	0.0058 µM			CC(C)(c1ccc2sc(C(=O)Nc3cc(Cl)nc(Oc4ccc(Cl)c(Cl)c4)c3)cc2c1)S(C)(=O)=O [Example 82, N-(2-chloro-6-(3,4-dichlorophenoxy)pyridin-4-yl)-5-(2-(methylsulfonyl)propan-2-yl)benzo[b]thiophene-2-carboxamide]
0.0026 µM	> 50 µM	0.02 µM	0.0065 µM			CC(C)(c1ccc2sc(C(=O)Nc3cc(Cl)nc(Oc4ccc(OC(F)(F)F)cc4)c3)cc2c1)S(C)(=O)=O [Example 84, N-(2-chloro-6-(4-(trifluoromethoxy)phenoxy)pyridin-4-yl)-5-(2-(methylsulfonyl)propan-2-yl)benzo[b]thiophene-2-carboxamide]
0.0053 µM	> 50 µM	0.037 µM	0.028 µM			CC(C)(c1ccc2sc(C(=O)Nc3cc(Cl)nc(Oc4csc(C(F)(F)F)c4)c3)cc2c1)S(C)(=O)=O [Example 117, N-(2-chloro-6-((5-(trifluoromethyl)thiophen-3-yl)oxy)pyridin-4-yl)-5-(2-(methylsulfonyl)propan-2-yl)benzo[b]thiophene-2-carboxamide]
0.027 µM	> 50 µM	0.15 µM	0.027 µM			CC(C)(c1ccc2sc(C(=O)Nc3cc(Cl)nc(Oc4ccsc4Cl)c3)cc2c1)S(C)(=O)=O [Example 121, N-(2-chloro-6-((2-chlorothiophen-3-yl)oxy)pyridin-4-yl)-5-(2-(methylsulfonyl)propan-2-yl)benzo[b]thiophene-2-carboxamide]
0.024 µM	> 50 µM	0.15 µM	0.089 µM			CC(C)(c1ccc2sc(C(=O)Nc3cc(Cl)nc(OCc4ccc(Cl)cc4)c3)cc2c1)S(C)(=O)=O [Example 86, N-(2-chloro-6-((4-chlorobenzyl)oxy)pyridin-4-yl)-5-(2-(methylsulfonyl)propan-2-yl)benzo[b]thiophene-2-carboxamide]
0.062 µM	> 50 µM	0.91 µM	0.2 µM			Cc1onc(Oc2cc(NC(=O)c3cc4cc(C(C)(C)S(C)(=O)=O)ccc4s3)cc(Cl)n2)c1C [Example 116, N-(2-chloro-6-((4,5-dimethylisoxazol-3-yl)oxy)pyridin-4-yl)-5-(2-(methylsulfonyl)propan-2-yl)benzo[b]thiophene-2-carboxamide]
0.0052 µM	> 50 µM	0.02 µM	0.0082 µM			CC(C)(c1ccc2sc(C(=O)Nc3cc(Cl)nc(Oc4ccc(Cl)cc4F)c3)cc2c1)S(C)(=O)=O [Example 83, N-(2-chloro-6-(4-chloro-2-fluorophenoxy)pyridin-4-yl)-5-(2-(methylsulfonyl)propan-2-yl)benzo[b]thiophene-2-carboxamide]
	> 50 µM	0.021 µM	0.0084 µM	0.0053 µM	0.047 µM	CC(C)(c1ccc2sc(C(=O)Nc3cc(Cl)nc(Oc4ccc(C(F)(F)F)cc4)c3)cc2c1)S(C)(=O)=O [Example 67, N-(2-chloro-6-(4-(trifluoromethyl)phenoxy)pyridin-4-yl)-5-(2-(methylsulfonyl)propan-2-yl)benzo[b]thiophene-2-carboxamide]
> 0.1 µM	12.8 µM	7.8 µM	2.8 µM			Cc1csc(Oc2cc(NC(=O)c3cc4cc(C(C)(C)S(C)(=O)=O)ccc4s3)cc(Cl)n2)n1 [Example 119, N-(2-chloro-6-((4-methylthiazol-2-yl)oxy)pyridin-4-yl)-5-(2-(methylsulfonyl)propan-2-yl)benzo[b]thiophene-2-carboxamide]
0.0074 µM	> 50 µM	0.043 µM	0.041 µM			CC(C)(c1ccc2sc(C(=O)Nc3cc(Cl)nc(Oc4ccc(F)c(F)c4)c3)cc2c1)S(C)(=O)=O [Example 79, N-(2-chloro-6-(3,4-difluorophenoxy)pyridin-4-yl)-5-(2-(methylsulfonyl)propan-2-yl)benzo[b]thiophene-2-carboxamide]
0.004 µM	> 50 µM	0.021 µM	0.01 µM			CC(C)(c1ccc2sc(C(=O)Nc3cc(Cl)nc(Oc4ccc(Cl)c(F)c4)c3)cc2c1)S(C)(=O)=O [Example 72, N-(2-chloro-6-(4-chloro-3-fluorophenoxy)pyridin-4-yl)-5-(2-(methylsulfonyl)propan-2-yl)benzo[b]thiophene-2-carboxamide]
0.0038 µM	> 50 µM	0.033 µM	0.005 µM			CC(C)(c1ccc2sc(C(=O)Nc3cc(Cl)nc(Oc4cccc(OC(F)(F)F)c4)c3)cc2c1)S(C)(=O)=O [Example 81, N-(2-chloro-6-(3-(trifluoromethoxy)phenoxy)pyridin-4-yl)-5-(2-(methylsulfonyl)propan-2-yl)benzo[b]thiophene-2-carboxamide]
0.026 µM	39.6 µM	0.12 µM	0.078 µM			Cc1ccc(Oc2cc(NC(=O)c3cc4cc(C(C)(C)S(C)(=O)=O)ccc4s3)cc(Cl)n2)s1 [Example 120, N-(2-chloro-6-((5-methylthiophen-2-yl)oxy)pyridin-4-yl)-5-(2-(methylsulfonyl)propan-2-yl)benzo[b]thiophene-2-carboxamide]
0.021 µM	> 50 µM	0.14 µM	0.019 µM			Cc1sccc1Oc1cc(NC(=O)c2cc3cc(C(C)(C)S(C)(=O)=O)ccc3s2)cc(Cl)n1 [Example 115, N-(2-chloro-6-((2-methylthiophen-3-yl)oxy)pyridin-4-yl)-5-(2-(methylsulfonyl)propan-2-yl)benzo[b]thiophene-2-carboxamide]
0.0056 µM	> 50 µM	0.02 µM	0.011 µM			CC(C)(c1ccc2sc(C(=O)Nc3cc(Cl)nc(Oc4ccc(F)c(Cl)c4)c3)cc2c1)S(C)(=O)=O [Example 71, N-(2-chloro-6-(3-chloro-4-fluorophenoxy)pyridin-4-yl)-5-(2-(methylsulfonyl)propan-2-yl)benzo[b]thiophene-2-carboxamide]
0.068 µM	> 50 µM	1.7 µM	0.46 µM			Cc1cnc(Oc2cc(NC(=O)c3cc4cc(C(C)(C)S(C)(=O)=O)ccc4s3)cc(Cl)n2)s1 [Example 109, N-(2-chloro-6-((5-methylthiazol-2-yl)oxy)pyridin-4-yl)-5-(2-(methylsulfonyl)propan-2-yl)benzo[b]thiophene-2-carboxamide]
0.0084 µM	> 50 µM	0.069 µM	0.04 µM			CC(C)(c1ccc2sc(C(=O)Nc3cc(Cl)nc(Oc4cccc(Cl)c4)c3)cc2c1)S(C)(=O)=O [Example 80, N-(2-chloro-6-(3-chlorophenoxy)pyridin-4-yl)-5-(2-(methylsulfonyl)propan-2-yl)benzo[b]thiophene-2-carboxamide]
	> 50 µM		0.019 µM	0.019 µM	0.039 µM	CC(C)(c1cc2cc(C(=O)Nc3cc(Cl)cc(Oc4ccc(Cl)cc4)c3)sc2cc1F)S(C)(=O)=O [Example 44, N-(3-chloro-5-(4-chlorophenoxy)phenyl)-6-fluoro-5-(2-(methylsulfonyl)propan-2-yl)benzo[b]thiophene-2-carboxamide]
	> 50 µM		0.014 µM	0.008 µM	0.01 µM	CC(C)(c1ccc2sc(C(=O)Nc3cc(Cl)cc(Oc4cccc(OC(F)(F)F)c4)c3)cc2c1)S(C)(=O)=O [Example 48, N-(3-chloro-5-(3-(trifluoromethoxy)phenoxy)phenyl)-5-(2-(methylsulfonyl)propan-2-yl)benzo[b]thiophene-2-carboxamide]

Source: patent publication US10023591B2, “Heterocyclic derivatives and use thereof” (C&C RESEARCH LABORATORIES, priority 2014, dated 2018)
